From patent US6624317B1, “Taxoid conjugates as antimitotic and antitumor agents” (priority 2000, dated 2003)
pEC50: −log10 of the molar value. Like-named read-outs stand apart in the source and are kept apart here.

Tests used:
lung carcinoma (A-549) = experiment: in vitro cytotoxicity assay, A549; details: read-out: Cytotoxicity (ED50) A549
Protocol: (§1) Biological Assay. The in vitro cytotoxicity assay was carried out according to procedures described in Rubinstein et al. (P. Ferguson et al., Cancer Res. 1988, 48, 5956-5964). […] The human tumor cell line panel consisted of epiderimoid carcinoma of the nasopharynx (KB), lung carcinoma (A-549), ileocecal carcinoma (HCT-8), renal cancer (CAKI-1), breast cancer (MCF-7), melanoma cancer (SKMEL-2), and ovarian cancer (1A9). The drug resistant cell line panel consisted of three KB-derivatives, -7d, -CPT, and -VCR. The properties of these cells are described elsewhere (P. Ferguson et al., Cancer Res. 1988, 48, 5956-5964; D. Beidler et al., Cancer Res. 1996, 56, 345-353). […] They were a generous gift of Dr. P. Giannakakou (P. Giannakakou et al., J. Biol. Chem. 1997, 27, 17118-17125). Cells were cultured at 37° C. in RPMI-1640 with 100 ug/mL kanamycin and 10% (v/v) fetal bovine serum in a humidified atmosphere containing 5% CO2. Initial seeding densities varied among the cell lines to ensure a final absorbance of 1-2.5 A562 units. Drug exposure was for 3 days, and the ED50 value, the drug concentration that reduced the absorbance by 50%, was interpolated from dose-response data.

[1] = tested on: epiderimoid carcinoma of the nasopharynx (KB); experiment: in vitro cytotoxicity assay, KB; format: cell-based, human; details: drug exposure 3 days
Protocol: as §1

ovarian cancer (1A9) = experiment: in vitro cytotoxicity assay, 1A9; details: read-out: Cytotoxicity (ED50) 1A9 (OVCAR)
Protocol: as §1

renal cancer (CAKI-1) = experiment: in vitro cytotoxicity assay, CAKI-1; details: read-out: Cytotoxicity (ED50) CAKI-1
Protocol: as §1

[2] = tested on: melanoma cancer (SKMEL-2); experiment: in vitro cytotoxicity assay, SK-MEL-2; details: read-out: Cytotoxicity (ED50) SK-MEL-2
Protocol: as §1

[3] = tested on: ileocecal carcinoma (HCT-8); experiment: in vitro cytotoxicity assay, HCT-8; details: read-out: Cytotoxicity (ED50) HCT-8
Protocol: as §1

breast cancer (MCF-7) = experiment: in vitro cytotoxicity assay, MCF-7; details: read-out: Cytotoxicity (ED50) MCF-7
Protocol: as §1

PAX-10 = experiment: cytotoxicity in paclitaxel-resistant 1A9 sub-line PAX-10; format: cell-based, human; details: PAX-10 paclitaxel-resistant 1A9 sub-line
Protocol: as §1
(§2) The newly synthesized taxoid-4′-O-demethyl epipodophyllotoxin conjugates were evaluated in house using standard cytotoxicity assays in human tumor (HTCL) and drug-resistant (DRCL) cell lines. Reference compounds were paclitaxel (1), cephalomannine (2), and epipodophyllotoxins [etoposide (5) and GL-331 (7), see FIG. 1]. The HTCL panel was comprised of KB, A549, HCT-8, CAKI-1, MCF-7, SK-MEL-2, and 1A9 cell lines. Two paclitaxel-resistant 1A9 sub-lines designated as PAX-10 and PAX-22 were also tested as part of the DRCL panel. Other resistant-cell lines were KB derivatives expressing various mechanisms or multi-drug resistance as described elsewhere (P. Ferguson et al., Cancer Res. 1988, 48, 5956-5964; D. Beidler et al., Cancer Res. 1996, 56, 345-353).

[4] = tested on: human KB and DU-145 tumor cells in nude mice; details: earlier work; cited from earlier work
[5] = tested on: protein-linked DNA breaks (PLDB); details: drug treated cells; earlier work; cited from earlier work
Topoisomerase II = Topoisomerase II activity assay (inhibition of topo II in vitro); format: biochemical; details: NA^1 not active at 50 uM, NA^2 not active at 100 uM
Source text: (§3) Protein-Linked DNA Break and Topoisomerase 11 Activity Assays. The procedures were done according to detailed published methods (K. Bastow et al., Bioorg. Med. Chem. 1997, 5, 1481-1488).

KB-CPT = experiment: cytotoxicity in drug resistant cell line KB-CPT; format: cell-based, human; details: KB-CPT drug resistant KB derivative
Protocol: as §1, §2

KB-VCR = experiment: cytotoxicity in drug resistant cell line KB-VCR; format: cell-based, human; details: KB-VCR drug resistant KB derivative
Protocol: as §1, §2

melanoma cell lines = experiment: NCI human tumor cell lines, melanoma; format: cell-based; details: average over all cell lines of the tumor type; data provided by the NCI
[6] = tested on: paclitaxel resistant cells; experiment: cytotoxicity against paclitaxel resistant cells (overall); format: cell-based, human; details: compared with the unconjugated components, Table 3
Protocol: as §1, §2

Colon cell lines = experiment: NCI human tumor cell lines, colon; format: cell-based; details: average over all cell lines of the tumor type; data provided by the NCI
leukemia cell lines = experiment: NCI human tumor cell lines, leukemia; format: cell-based; details: average over all cell lines of the tumor type; data provided by the NCI
[7] = tested on: human tumor (HTCL) cell lines; experiment: standard cytotoxicity assays in human tumor cell lines (HTCL panel, overall); details: summary of Table 2
Protocol: as §1
The newly synthesized taxoid-4′-O-demethyl epipodophyllotoxin conjugates were evaluated in house using standard cytotoxicity assays in human tumor (HTCL) and drug-resistant (DRCL) cell lines. […]

ovarian cell lines = experiment: NCI human tumor cell lines, ovarian; format: cell-based; details: average over all cell lines of the tumor type; data provided by the NCI
KB-7d = experiment: cytotoxicity in drug resistant cell line KB-7d; format: cell-based, human; details: KB-7d drug resistant KB derivative
Protocol: as §1, §2

[8] = tested on: Cellular protein-DNA complex formation; experiment: Protein-linked DNA break assay (cellular protein-DNA complex formation); format: cell-based; details: for Cellular protein-DNA complex formation: Etoposide given as 100, NA^1 not active at 50 uM, NA^2 not active at 100 uM
Source text: as §3

prostate cell lines = experiment: NCI human tumor cell lines, prostate; format: cell-based; details: average over all cell lines of the tumor type; data provided by the NCI
[9] = tested on: Central nervous system cancer cell lines; experiment: NCI human tumor cell lines, CNS; format: cell-based; details: average over all cell lines of the tumor type; data provided by the NCI
PAX-22 = experiment: cytotoxicity in paclitaxel-resistant 1A9 sub-line PAX-22; format: cell-based, human; details: PAX-22 paclitaxel-resistant 1A9 sub-line
Protocol: as §1, §2

[10] = tested on: Non-small cell lung cancer cell lines; experiment: NCI human tumor cell lines, NSCL; format: cell-based; details: average over all cell lines of the tumor type; data provided by the NCI
[11] = A549, drug exposure 3 days, NA = not active
[12] = 1A9 (OVCAR), drug exposure 3 days
[13] = SK-MEL-2, drug exposure 3 days, NA = not active
[14] = HCT-8, drug exposure 3 days, NA = not active

Row | Structure (SMILES) | pEC50 (lung carcinoma (A-549); Homo sapiens, A549, 72 h) | Cytotoxicity (ED50) KB [1] [nM] | pEC50 (ovarian cancer (1A9); Homo sapiens, 72 h) | pEC50 ([3]; Homo sapiens, HCT-8, 72 h) | Resistance Fold PAX-10 (PAX-10) | pEC50 (lung carcinoma (A-549); [11]) | pEC50 (ovarian cancer (1A9); [12]) | pEC50 (renal cancer (CAKI-1); CAKI-1, drug exposure 3 days) | pEC50 [2, 13] | pEC50 [3, 14] | pEC50 (breast cancer (MCF-7); MCF-7, drug exposure 3 days) | Inhibition of Topo II IC100 (Topoisomerase II) [µM] | Resistance Fold KB-CPT (KB-CPT) | Resistance Fold KB-VCR (KB-VCR) | Resistance Fold KB-7d (KB-7d) | Cellular protein-DNA complex formation [8] | Resistance Fold PAX-22 (PAX-22) | other results
1 | C/C=C(\C)C(=O)N[C@@H](c1ccccc1)[C@@H](O)C(=O)O[C@H]1C[C@@]2(O)[C@@H](OC(=O)c3ccccc3)[C@@H]3[C@]4(OC(C)=O)CO[C@@H]4C[C@H](O)[C@@]3(C)C(=O)[C@H](OC(C)=O)C(=C1C)C2(C)C [Cephalomannine, cephalomannine, reference compound] | 8.05 | 2 | 8.52 | 7.33 | 40 |  |  |  |  |  |  |  |  |  |  |  |  | pEC50 (renal cancer (CAKI-1); Homo sapiens, CAKI-1, 72 h): < 6.52; pEC50 ([2]; Homo sapiens, SK-MEL-2, 72 h): 6.87; pEC50 (breast cancer (MCF-7); Homo sapiens, MCF7, 72 h): 6.78
2 | CC[C@@]1(O)C(=O)OCc2c1cc1n(c2=O)Cc2c-1nc1ccccc1c2C=Nc1ccc(N[C@@H]2c3cc4c(cc3[C@@H](c3cc(OC)c(O)c(OC)c3)[C@H]3C(=O)OC[C@@H]32)OCO4)cc1 [Compound 3] |  |  |  |  |  |  |  |  |  |  |  |  |  |  |  |  |  | in vivo antitumor activity (in words) [4]: more active than either etoposide or CPT; induction of protein-linked DNA breaks (PLDB) (in words) [5]: induced protein-linked DNA breaks (PLDB) in a concentration dependent manner
3 | CC[C@@]1(O)C(=O)OCc2c1cc1n(c2=O)Cc2c-1nc1ccccc1c2C=Nc1ccccc1N[C@@H]1c2cc3c(cc2[C@@H](c2cc(OC)c(O)c(OC)c2)[C@H]2C(=O)OC[C@@H]21)OCO3 [Compound 4] |  |  |  |  |  |  |  |  |  |  |  |  |  |  |  |  |  | induction of protein-linked DNA breaks (PLDB) (in words) [5]: induced protein-linked DNA breaks (PLDB) in a concentration dependent manner
4 | C/C=C(\C)C(=O)N[C@@H](c1ccccc1)[C@@H](OC(=O)c1ccc(C=N[C@@H]2c3cc4c(cc3[C@@H](c3cc(OC)c(O)c(OC)c3)[C@H]3C(=O)OC[C@@H]32)OCO4)cc1)C(=O)O[C@H]1C[C@@]2(O)[C@@H](OC(=O)c3ccccc3)[C@@H]3[C@]4(OC(C)=O)CO[C@@H]4C[C@H](O)[C@@]3(C)C(=O)[C@H](OC(C)=O)C(=C1C)C2(C)C [Compound 14] |  | 30 |  |  | >36 | 6.15 | 6.85 | < 5.30 | 5.05 | 5.56 | 5.91 |  |  |  |  |  |  | 
5 | COc1cc([C@@H]2c3cc4c(cc3[C@@H](Nc3ccc(N=Cc5ccc(C(=O)O[C@@H](C(=O)O[C@H]6C[C@@]7(O)[C@@H](OC(=O)c8ccccc8)[C@@H]8[C@]9(OC(C)=O)CO[C@@H]9C[C@H](O)[C@@]8(C)C(=O)[C@H](OC(C)=O)C(=C6C)C7(C)C)[C@@H](NC(=O)c6ccccc6)c6ccccc6)cc5)cc3)[C@H]3COC(=O)[C@H]23)OCO4)cc(OC)c1O [Compound 15] |  | 230 |  |  | >17 | 5.55 | 6.52 | < 5.40 | < 4.40 | < 7.00 | 5.73 | 100 | 1 | 8 | 1 | 25 +/− 11% | 8 | log GI50 melanoma (melanoma cell lines): −5.01; activity against paclitaxel resistant cells (in words) [6]: enhanced activity against paclitaxel resistant cells; log GI50 Colon (Colon cell lines): −5.12; log GI50 leukemia (leukemia cell lines): −6.02; cytotoxicity in human tumor cell lines (in words) [7]: exhibited different cytotoxic activity from both precursors; log GI50 ovarian (ovarian cell lines): −4.95; intracellular poisoning / stimulation of protein-DNA breaks in cells (in words) ([8]; in cells): intracellular poisons; log GI50 prostate (prostate cell lines): −5.06; log GI50 CNS [9]: −5.54; log GI50 NSCL [10]: −5.50
6 | C/C=C(\C)C(=O)N[C@@H](c1ccccc1)[C@@H](OC(=O)c1ccc(C=Nc2ccc(N[C@@H]3c4cc5c(cc4[C@@H](c4cc(OC)c(O)c(OC)c4)[C@H]4C(=O)OC[C@@H]43)OCO5)cc2)cc1)C(=O)O[C@H]1C[C@@]2(O)[C@@H](OC(=O)c3ccccc3)[C@@H]3[C@]4(OC(C)=O)CO[C@@H]4C[C@H](O)[C@@]3(C)C(=O)[C@H](OC(C)=O)C(=C1C)C2(C)C [Compound 16] |  | 1400 |  |  | 7.5 | 5.45 | 5.95 | < 5.00 | < 4.40 | < 4.40 | < 5.30 |  |  |  |  |  |  | activity against paclitaxel resistant cells (in words) [6]: enhanced activity against paclitaxel resistant cells
7 | COc1cc([C@@H]2c3cc4c(cc3[C@@H](O[C@@H]3O[C@@H]5CO[C@@H](C)O[C@H]5[C@H](O)[C@H]3O)[C@H]3COC(=O)[C@H]23)OCO4)cc(OC)c1O [Etoposide, etoposide, reference compound] | 5.71 | 200 | 6.22 | < 5.30 | >16 |  |  |  |  |  |  | 100 | 1 | 153 | 119 | 100% | >16 | pEC50 (renal cancer (CAKI-1); Homo sapiens, CAKI-1, 72 h): 5.66; pEC50 (breast cancer (MCF-7); Homo sapiens, MCF7, 72 h): < 5.30
8 | COc1cc([C@@H]2c3cc4c(cc3[C@@H](Nc3ccc([N+](=O)[O-])cc3)[C@H]3COC(=O)[C@H]23)OCO4)cc(OC)c1O [GL-331, reference compound] |  | 1860 |  |  | 13 | 6.32 | 6.70 | 5.74 | 5.23 | 5.47 | 5.03 | 50 | 1 | 3 | 2 | 134 +/− 7% | 8 | 
9 | CC(=O)O[C@H]1C(=O)[C@@]2(C)[C@H]([C@H](OC(=O)c3ccccc3)[C@]3(O)C[C@H](OC(=O)[C@H](O)[C@@H](NC(=O)c4ccccc4)c4ccccc4)C(C)=C1C3(C)C)[C@]1(OC(C)=O)CO[C@@H]1C[C@@H]2O [Paclitaxel, paclitaxel, reference compound] | 8.22 | 16 | 8.70 | 7.89 | 24 |  |  |  |  |  |  |  | 1 | 15 | 1 |  | 24 | 
